Data taken from patent US11021457B2, “Class of isoindolone-imide ring-1,3-dione-2-ene compounds, composition and use thereof” (WIGEN BIOMEDICINE TECHNOLOGY (SHANGHAI) CO., LTD., priority 2017, dated 2021).

What was measured:
SU-DHL6 = test: Inhibition of tumor cell proliferation, CellTiter-Glo, SU-DHL6; format: cell-based; settings: compound concentration 50 μM, 72 hours
Procedure, shortened: (§1)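 Cells seeded at 2000-10000 per well, treated immediately (suspension) or after adherence (adherent) and cultured at 37° C, 5% CO2. Viability read by CellTiter-Glo at 72 h as blank-corrected survival rate vs control. Scored at 50 μM compound: survival 60-<90% +, >30-60% ++, ≤30% +++.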

RPMI-8226 = test: Inhibition of tumor cell proliferation, CellTiter-Glo, RPMI-8226; format: cell-based; settings: compound concentration 50 μM, 72 hours
Procedure, shortened: as §1

K562 = test: Inhibition of tumor cell proliferation, CellTiter-Glo, K562; format: cell-based; settings: compound concentration 50 μM, 72 hours
Procedure, shortened: as §1

A549 = test: Inhibition of tumor cell proliferation, CellTiter-Glo, A549; format: cell-based; settings: compound concentration 50 μM, 72 hours
Procedure, shortened: as §1

MDA-MB-453 = test: Inhibition of tumor cell proliferation, CellTiter-Glo, MDA-MB-453; format: cell-based; settings: compound concentration 50 μM, 72 hours
Procedure, shortened: as §1

BxPC-3 = test: Inhibition of tumor cell proliferation, CellTiter-Glo, BxPC-3; format: cell-based; settings: compound concentration 50 μM, 72 hours
Procedure, shortened: as §1

[1] = test system: human multiple myeloma RPMI8226 cell xenograft tumor; test: In-vivo anti-tumor efficacy in multiple myeloma xenograft tumor model (tumor volume, T/C, TGI); parameters: species or system mouse; settings: for Average volume (mm3) Start of the treatment Day 1 / Average volume (mm3) End of the treatment Day 21 / T/C %: QD × 21; for Average volume (mm3) End of the treatment Day 21 / T/C %: Day 21
Experimental: The in-vivo anti-tumor efficacy of the compound 1, lenalidomide, dexamethasone and a combination of the compound 1 or lenalidomide with dexamethasone in human multiple myeloma RPMI8226 cell xenograft tumor model was evaluated.
(§2) The test animals were female CB17 SCID mice. Human RPMI8226 cells were cultured in RPMI1640 medium containing 10% heat-inactivated fetal bovine serum and 1% penicillin-streptomycin double antibody in an incubator with 5% CO2 at 37° C. When the cells were in an exponential growth phase, the cells were harvested, counted, and subcutaneously inoculated into the right dorsal portion of each mouse. The mice were grouped and administered when the average tumor volume reached about 150 mm^3. Grouping method: the animals were weighed and measured for the tumor volume before administration, and grouped by block design according to the tumor volume.
(§3) Whether the tumor growth could be inhibited, delayed or cured was investigated. The diameter of the tumor was measured by a vernier caliper. The tumor volume was calculated by a formula: V=0.5×a×b^2, in which a and b respectively represent the long diameter and short diameter of the tumor. The anti-tumor effect T/C (%) of the compound was evaluated by a formula: T/C %=TRTV/CRTV×100% (TRTV: RTV of the treatment group; CRTV: RTV of the negative control group). The relative tumor volume RTV was calculated by a formula: RTV=Vt/V0, where V0 is the measured tumor volume at the time of grouping and administration (i.e. day 0), and Vt is the tumor volume at each measurement. T/C (%) reflects the inhibition rate on tumor growth. […] The weight of the mice bearing tumor in each group was recorded and analyzed, as shown in FIGS. 1 and 2 and Table 14, and the effect of the compound on the tumor volume of the mice bearing tumor is shown in FIGS. 3 and 4 and Table 15.

[2] = Body weight of tumor-bearing mice in the in-vivo pharmacodynamic test; parameters: species or system mouse; settings: for Average body weight (g) Start of the treatment Day 1 / Average body weight (g) End of the treatment Day 21 / Average RCBW (%)/end of the treatment Day 21: QD × 21; for Average body weight (g) Start of the treatment Day 1 / Average body weight (g) End of the treatment Day 21: x ± SEM; for Average RCBW (%)/end of the treatment Day 21: Day 21 relative to Day 1
Experimental: as §2, §3

LC3B = LC3B (Homo sapiens (Human), UniProt Q9GZQ8); test: Fluorescence polarization experiment targeting LC3B (GST-LC3B with FITC-labeled peptide); settings: GST-LC3B 180 nM, FITC-labeled peptide 18 nM, 25° C.
[3] = Compound 1 53 mg/kg + Dexamethasone 1 mg/kg
[4] = Compound 1 53 mg/kg p.o + Dexamethasone 1 mg/kg i.p
[5] = Lenalidomide 30 mg/kg + Dexamethasone 1 mg/kg
[6] = Lenalidomide 30 mg/kg p.o, RPMI8226 tumor-bearing mice
[7] = Lenalidomide 30 mg/kg p.o + Dexamethasone 1 mg/kg i.p
[8] = Lenalidomide 30 mg/kg p.o., RPMI8226 tumor-bearing mice

O=C1CCC(N2Cc3c(NC=C4C(=O)CC(c5ccccc5)CC4=O)cccc3C2=O)C(=O)N1 (stereo not drawn) [Compound 1]
Inhibitory activity against proliferation (cell survival rate) SU-DHL6 (SU-DHL6): +++ (survival rate (%)≤30)
Inhibitory activity against proliferation (cell survival rate) RPMI-8226 (RPMI-8226): +++ (survival rate (%)≤30)
Inhibitory activity against proliferation (cell survival rate) K562 (K562): +++ (survival rate (%)≤30)
Inhibitory activity against proliferation (cell survival rate) A549 (A549): +++ (survival rate (%)≤30)
Inhibitory activity against proliferation (cell survival rate) MDA-MB-453 (MDA-MB-453): ++ (30<survival rate (%)≤60)
Inhibitory activity against proliferation (cell survival rate) BxPC-3 (BxPC-3): ++ (30<survival rate (%)≤60)
Tumor inhibition effect ([1]; 17.7 mg/kg, versus lenalidomide 30 mg/kg): comparable to that of lenalidomide
Anti-tumor effect ([1]; 53 mg/kg (same molar dose as lenalidomide)): significantly higher than lenalidomide
Average volume (mm3) Start of the treatment Day 1 ([1]; Compound 1 17.7 mg/kg p.o): 141.27 ± 14.61 mm3
Average volume (mm3) End of the treatment Day 21 ([1]; Compound 1 17.7 mg/kg p.o): 881.71 ± 175.49 mm3
T/C % ([1]; Compound 1 17.7 mg/kg p.o): 47.20%
Average volume (mm3) Start of the treatment Day 1 [1, 3]: 141.54 ± 14.27 mm3
Average volume (mm3) End of the treatment Day 21 [1, 3]: 179.24 ± 48.35 mm3
T/C % [1, 3]: 9.60%
Average volume (mm3) Start of the treatment Day 1 ([1]; Compound 1 53 mg/kg p.o): 142.38 ± 15.41 mm3
Average volume (mm3) End of the treatment Day 21 ([1]; Compound 1 53 mg/kg p.o): 674.46 ± 137.82 mm3
T/C % ([1]; Compound 1 53 mg/kg p.o): 36.11%
Tumor inhibition effect ([1]; in combination with dexamethasone): stronger tumor inhibition effect than lenalidomide
Average body weight (g) Start of the treatment Day 1 ([2]; Compound 1 17.7 mg/kg p.o): 21.60 ± 0.36 g
Average body weight (g) End of the treatment Day 21 ([2]; Compound 1 17.7 mg/kg p.o): 22.49 ± 0.39 g
Average RCBW (%)/end of the treatment Day 21 ([2]; Compound 1 17.7 mg/kg p.o): 4.13%
Average body weight (g) Start of the treatment Day 1 [2, 4]: 21.41 ± 0.32 g
Average body weight (g) End of the treatment Day 21 [2, 4]: 20.46 ± 0.31 g
Average RCBW (%)/end of the treatment Day 21 [2, 4]: −4.46%
Average body weight (g) Start of the treatment Day 1 ([2]; Compound 1 53 mg/kg p.o): 21.15 ± 0.36 g
Average body weight (g) End of the treatment Day 21 ([2]; Compound 1 53 mg/kg p.o): 22.25 ± 0.31 g
Average RCBW (%)/end of the treatment Day 21 ([2]; Compound 1 53 mg/kg p.o): 5.27%
Effect on body weight of tumor-bearing mice ([2]; in combination with dexamethasone, attributed to dexamethasone): weight loss
Effect on body weight of tumor-bearing mice ([2]; throughout the administration period): does not affect the body weight
IC50 (LC3B): 3 to 15 µM

Nc1cccc2c1CN(C1CCC(=O)NC1=O)C2=O (stereo not drawn) [Lenalidomide, reference compound]
Average volume (mm3) Start of the treatment Day 1 [1, 5]: 141.35 ± 15.02 mm3
Average volume (mm3) End of the treatment Day 21 [1, 5]: 233.72 ± 47.47 mm3
T/C % [1, 5]: 12.51%
Average volume (mm3) Start of the treatment Day 1 [1, 6]: 140.44 ± 15.82 mm3
T/C % ([1]; Lenalidomide 30 mg/kg p.o): 49.67%
Average volume (mm3) End of the treatment Day 21 [1, 6]: 927.82 ± 164.85 mm3
Average body weight (g) Start of the treatment Day 1 [2, 7]: 21.23 ± 0.34 g
Average body weight (g) End of the treatment Day 21 [2, 7]: 20.08 ± 0.25 g
Average RCBW (%)/end of the treatment Day 21 [2, 7]: −5.33%
Average body weight (g) Start of the treatment Day 1 [2, 8]: 21.02 ± 0.23 g
Average body weight (g) End of the treatment Day 21 [2, 8]: 21.90 ± 0.30 g
Average RCBW (%)/end of the treatment Day 21 ([2]; Lenalidomide 30 mg/kg p.o.): 4.18%
